Test results published in ChEMBL document CHEMBL1135266, “Covalent analogues of DNA base-pairs and triplets. Part 2: synthesis and cytostatic activity of bis(purin-6-yl)acetylenes,-diacetylenes and related compounds” (Bioorg Med Chem Lett, 2002).

Experiments:
CCRF-CEM [1] = assay: Tested in vitro for the inhibition of cell growth of human T lymphoblastoid CCRF-CEM cell line (ATCC CCL 119); format: functional, cell-based
HeLa [2] = assay: Tested in vitro for the inhibition of cell growth of human cervix carcinoma HeLa S3 cell (ATCC CCL 2.2); na = not active (inhibition of cell growth at 10 uM was lower than 20%); format: functional, cell-based
L1210 [3] = assay: Tested in vitro for the inhibition of cell growth of mouse leukemia L1210 cell (ATCC CCL 219); format: functional, cell-based
L929 [4] = assay: Tested in vitro for the inhibition of cell growth of murine L929 cells (ATCC CCL 1); format: functional, cell-based; conditions: Mus musculus
CCRF-CEM [5] = assay: Tested in vitro for the inhibition of cell growth of human T lymphoblastoid CCRF-CEM cell line (ATCC CCL 119); na = not active (inhibition of cell growth at 10 uM was lower than 20%); format: functional, cell-based
L1210 [6] = assay: Tested in vitro for the inhibition of cell growth of mouse leukemia L1210 cell (ATCC CCL 219); na = not active (inhibition of cell growth at 10 uM was lower than 20%); format: functional, cell-based
L929 [7] = assay: Tested in vitro for the inhibition of cell growth of murine L929 cells (ATCC CCL 1); na = not active (inhibition of cell growth at 10 uM was lower than 20%); format: functional, cell-based, Mus musculus
HeLa [8] = assay: Tested in vitro for the inhibition of cell growth of human cervix carcinoma HeLa S3 cell (ATCC CCL 2.2); format: functional, cell-based

C(C#Cc1ncnc2c1ncn2Cc1ccccc1)#Cc1ncnc2c1ncn2Cc1ccccc1
IC50 (CCRF-CEM [1]): 0.43 µM
IC50 (HeLa [2]): Not Active
IC50 (L1210 [3]): 0.37 µM
IC50 (L929 [4]): 6.3 µM

C(=Cc1ncnc2c1ncn2Cc1ccccc1)c1ncnc2c1ncn2Cc1ccccc1
IC50 (CCRF-CEM [5]): Not Active
IC50 (HeLa [2]): Not Active
IC50 (L1210 [6]): Not Active
IC50 (L929 [7]): Not Active

C(C#Cc1ncnc2c1ncn2C1CCCCO1)#Cc1ncnc2c1ncn2C1CCCCO1 (stereo not given)
IC50 (CCRF-CEM [1]): 0.58 µM
IC50 (HeLa [8]): 13.3 µM
IC50 (L1210 [3]): 0.7 µM
IC50 (L929 [4]): 1 µM

CCCCCn1cnc2c(C#Cc3ncnc4c3ncn4CCCCC)ncnc21
IC50 (CCRF-CEM [1]): 0.36 µM
IC50 (HeLa [8]): 15 µM
IC50 (L1210 [3]): 1.5 µM
IC50 (L929 [4]): 3 µM

C(#Cc1ncnc2c1ncn2Cc1ccccc1)c1ncnc2c1ncn2Cc1ccccc1
IC50 (CCRF-CEM [1]): 0.9 µM
IC50 (HeLa [2]): Not Active
IC50 (L1210 [3]): 1.8 µM
IC50 (L929 [4]): 5.3 µM

C(#Cc1ncnc2c1ncn2C1CCCCO1)c1ncnc2c1ncn2Cc1ccccc1 (stereo not given)
IC50 (CCRF-CEM [1]): 0.32 µM
IC50 (HeLa [8]): 6 µM
IC50 (L1210 [3]): 0.9 µM
IC50 (L929 [4]): 1.9 µM

c1ccc(Cn2cnc3c(CCc4ncnc5c4ncn5Cc4ccccc4)ncnc32)cc1
IC50 (CCRF-CEM [5]): Not Active
IC50 (HeLa [2]): Not Active
IC50 (L1210 [6]): Not Active
IC50 (L929 [7]): Not Active

C(=C\c1ncnc2c1ncn2Cc1ccccc1)/c1ncnc2c1ncn2Cc1ccccc1
IC50 (CCRF-CEM [5]): Not Active
IC50 (HeLa [2]): Not Active
IC50 (L1210 [6]): Not Active
IC50 (L929 [7]): Not Active

CCCCCn1cnc2c(C#CC#Cc3ncnc4c3ncn4CCCCC)ncnc21
IC50 (CCRF-CEM [1]): 0.37 µM
IC50 (HeLa [8]): 15 µM
IC50 (L1210 [3]): 0.5 µM
IC50 (L929 [4]): 1.3 µM

O=c1[nH]c(=O)n([C@H]2C[C@H](O)[C@@H](CO)O2)cc1F [FLOXURIDINE]
IC50 (CCRF-CEM [1]): 0.5 µM
IC50 (HeLa [8]): > 25 µM
IC50 (L1210 [3]): < 0.02 µM
IC50 (L929 [4]): > 25 µM
